Laboratory results as given in patent US9796742B2, “Kinase inhibitors” (Respivert Limited, priority 2012, dated 2017).
Like-named read-outs stand apart in the source and are kept apart here.

Columns and labels:
[1] = system: PBMCs; experiment: LPS-induced TNFα/IL-8 release in PBMC cells; assay type: cell-based; settings: Homo sapiens, LPS-stimulated PBMCs
Outline: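 Cytokines (TNFα, IL-8) in supernatants were quantified by sandwich ELISA after a 24 h challenge with 1 ng/mL E. coli LPS at 37° C, 5% CO2. Healthy-donor PBMCs had been exposed to compound for 2 h beforehand. IC50 values were fitted from the concentration-response curves.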

[2] = molecular target: Syk (Homo sapiens (Human), UniProt P43405); experiment: Syk enzyme inhibition (FRET, Z-LYTE); assay type: biochemical
Outline: (§1)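 Z-LYTE FRET peptide assay with enzyme preincubated with compound for 2 h at RT, then 1 h kinase reaction and 1 h protease development. ATP solutions were 800 μM for c-Src and 60 μM for Syk. Inhibition was taken from the coumarin/fluorescein emission ratio, and IC50 from concentration-response curves.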

[3] = system: d-U937 cells; experiment: LPS-induced TNFα/IL-8 release in d-U937 cells; assay type: cell-based; settings: Homo sapiens, dU937, LPS-stimulated d-U937 cells
[4] = system: TNBS-induced colitis in mice; experiment: TNBS-induced colitis in mice; assay type: in vivo
Procedure: Non-fasted, 10-12 week old, male BDF1 mice are dosed by oral gavage twice daily with either vehicle (5 mL/kg), reference item (Budesonide 2.5 mg/kg) or test compound (1 or 5 mg/kg) one day before (Day −1) stimulation of the inflammatory response by treatment with 2,4,6-trinitrobenzenesuiphonic acid (TNBS) (15 mg/mL in 50% ethanol/50% saline). On Day 0 of the study TNBS (200 μL) is administered intra-colonically via a plastic catheter followed by BID dosing of the vehicle, reference or test compound for 2 or 4 days. During the study animals are weighed every day and stool observations are made and recorded as a score, based on stool consistency. At the time of sacrifice on Day 2 (or Day 4) the large intestine is removed and the length and weight recorded. Sections of the colon are taken for either MPO analysis to determine neutrophil infiltration or for histopathology involving scoring to determine disease severity.

[5] = system: intestinal mucosa biopsies from ulcerative colitis patients; experiment: Human biopsy assay (ex-vivo cytokine release); assay type: cell-based
Procedure: Intestinal mucosa biopsies are obtained from the inflamed regions of the colon of IBD patients. The biopsy material is cut into small pieces (2-3 mm) and placed on steel grids in an organ culture chamber at 37° C. in a 5% CO2/95% O2 atmosphere in serum-free media. DMSO control or test compounds at the desired concentration are added to the tissue and incubated for 24 hr in the organ culture chamber. The supernatant is harvested for determination of IL-6, IL-8, IL-1β and TNFα levels by R&D ELISA. Percentage inhibition of cytokine release by the test compounds is calculated relative to the cytokine release determined for the DMSO control (100%).

[6] = molecular target: c-Src (Homo sapiens (Human), UniProt P12931); experiment: c-Src enzyme inhibition (FRET, Z-LYTE); assay type: biochemical
Outline: as §1

[7] = molecular target: p38 MAPKα (Homo sapiens (Human), UniProt Q16539); experiment: p38 MAPKα enzyme inhibition (FRET, Z-LYTE; Method 2); assay type: biochemical
Outline: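 p38 MAPKα (2.5 μL of 200 ng/mL stock) preincubated 2 h at RT with compound, then kinase reaction 1 h at RT with readout via MAPKAP-K2 activation using a Z-LYTE FRET peptide. Protease development 1 h; coumarin/fluorescein emission ratio gives phosphorylation. % inhibition versus uninhibited control; IC50 from concentration-response curve.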

[8] = 1 μg/ml, 24 hours, DMSO control 100%

p38 MAPKα, sequence (Q16539 whole entry): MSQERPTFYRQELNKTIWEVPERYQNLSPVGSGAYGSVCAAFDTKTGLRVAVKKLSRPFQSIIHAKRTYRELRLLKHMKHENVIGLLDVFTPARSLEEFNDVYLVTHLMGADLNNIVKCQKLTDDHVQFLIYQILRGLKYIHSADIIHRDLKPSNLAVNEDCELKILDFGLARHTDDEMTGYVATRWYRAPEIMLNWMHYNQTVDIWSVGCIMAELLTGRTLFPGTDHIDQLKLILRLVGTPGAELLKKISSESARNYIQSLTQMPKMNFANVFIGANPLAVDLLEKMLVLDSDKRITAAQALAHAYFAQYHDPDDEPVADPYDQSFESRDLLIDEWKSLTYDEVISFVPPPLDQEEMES
c-Src, sequence (P12931 whole entry, looked up): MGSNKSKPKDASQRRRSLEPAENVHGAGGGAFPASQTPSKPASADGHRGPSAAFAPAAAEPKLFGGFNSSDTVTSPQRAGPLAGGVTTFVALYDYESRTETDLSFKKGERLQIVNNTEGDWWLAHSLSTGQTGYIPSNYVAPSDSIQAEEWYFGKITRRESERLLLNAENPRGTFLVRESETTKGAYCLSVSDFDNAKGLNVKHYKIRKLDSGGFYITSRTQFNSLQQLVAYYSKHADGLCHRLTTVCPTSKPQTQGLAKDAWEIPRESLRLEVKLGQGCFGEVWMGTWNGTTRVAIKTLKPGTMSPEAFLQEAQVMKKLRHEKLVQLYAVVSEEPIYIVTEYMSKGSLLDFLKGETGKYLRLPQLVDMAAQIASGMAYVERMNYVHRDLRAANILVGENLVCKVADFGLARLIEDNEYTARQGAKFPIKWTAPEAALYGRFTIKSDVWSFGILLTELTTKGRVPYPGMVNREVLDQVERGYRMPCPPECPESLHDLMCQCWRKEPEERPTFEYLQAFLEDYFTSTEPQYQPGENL

IC50 [2]: 8000 pM
IC50 ([3]; IL-8, read-out: IC50 Values for Inhibition of Cytokine Release, dU937 cells IL-8): 400 pM
IC50 ([3]; TNFα (REC50 relative to BIRB796 per method), read-out: IC50 Values for Inhibition of Cytokine Release, dU937 cells TNFα): 200 pM
IC50 [6]: 2000 pM
IC50 [7]: 71000 pM
Structure (SMILES): COCCOCCOCCOc1cc(Nc2nccc(Oc3ccc(NC(=O)Nc4cc(C(C)(C)C)nn4-c4cccc(CP(C)(C)=O)c4)c4ccccc34)n2)cc(OC)c1 [Example 60, 1-(3-(tert-Butyl)-1-(3-((dimethylphosphoryl)methyl)phenyl)-1H-pyrazol-5-yl)-3-(4-((2-((3-methoxy-5-(2-(2-(2-methoxyethoxy)ethoxy)ethoxy)phenyl)amino)pyrimidin-4-yl)oxy)-naphthalen-1-yl)urea]
IC50 ([1]; IL-8, read-out: IC50 Values for Inhibition of Cytokine Release, PBMCs IL-8): 900 pM
IC50 ([1]; TNFα, read-out: IC50 Values for Inhibition of Cytokine Release, PBMCs TNFα): 600 pM
TNBS Ulcer grade ([4]; 5 mg/kg oral, conducted over 2 days, vehicle 3.6 ± 0.3 (exp. 1), 4.4 ± 0.2 (exp. 2)): 3.6 ± 0.4
TNBS LP inflammation ([4]; 5 mg/kg oral, conducted over 2 days, vehicle 3.9 ± 0.3 (exp. 1), 4.5 ± 0.2 (exp. 2)): 2.8 ± 0.4
activity in in vivo model of colonic inflammation (histopathology analysis) ([4]; conducted over 2 days): significant activity
inflammatory cell infiltrate in the reticular and laminar propria zone ([4]; dosed orally at 5 mg/kg): marked reduction
ulcer grade and epithelial repair compared to the vehicle control ([4]; dosed orally at 5 mg/kg): marked improvements
cytokine (IL-1b, IL-6 and IL-8) release compared to the DMSO control ([5]; 1 μg/mL, 24 hours, biopsies from ulcerative colitis patients): significantly inhibited
IL-1b release from biopsies of UC patients [5, 8]: 1 ± 2%
IL-6 release from biopsies of UC patients [5, 8]: 0 ± 0%
IL-8 release from biopsies of UC patients [5, 8]: 2 ± 4%
anti-inflammatory effects in biopsies from ulcerative colitis (UC) patients ([5]; ex-vivo human biopsy model): significant anti-inflammatory effects
